Experiments:
[1] = target: T1, NOP (ORL1) (h) (Homo sapiens, UniProt P41146); assay: Binding NOP (ORL1) (h) (ag); settings: read-out: % Inhibition of Control Specific Binding @ 10 μM
T1 construct: expressed in transfected cells; host or cells: HEK-293 cells
Procedure: (§1) Radioligand binding assay methods utilized to measure the activity of compounds of the invention will be familiar to those skilled in the art. In each assay case, the assay components such as, for example, the cell-type, ligand, reference compound and the like, will be familiar to practitioners of such an assay.
(§2) Analysis and Expression of Results: Compounds of the invention were tested in the biochemical assays and percent inhibition of specific binding was determined. The specific ligand binding to the receptors is defined as the difference between the total binding and the nonspecific binding determined in the presence of an excess of unlabelled ligand. The results are expressed as a percent inhibition of control specific binding (100−((measured specific binding/control specific binding)×100)) obtained in the presence of test compounds.

[2] = target: T2, Cholecystokinin CCK1 (CCKA) (h) (Homo sapiens, UniProt P32238); assay: Binding CCK1 (CCKA) (h) (ag); settings: read-out: % Inhibition of Control Specific Binding @ 10 μM
T2 construct: expressed in transfected cells; host or cells: CHO cells
T2 sequence (P32238 1-428): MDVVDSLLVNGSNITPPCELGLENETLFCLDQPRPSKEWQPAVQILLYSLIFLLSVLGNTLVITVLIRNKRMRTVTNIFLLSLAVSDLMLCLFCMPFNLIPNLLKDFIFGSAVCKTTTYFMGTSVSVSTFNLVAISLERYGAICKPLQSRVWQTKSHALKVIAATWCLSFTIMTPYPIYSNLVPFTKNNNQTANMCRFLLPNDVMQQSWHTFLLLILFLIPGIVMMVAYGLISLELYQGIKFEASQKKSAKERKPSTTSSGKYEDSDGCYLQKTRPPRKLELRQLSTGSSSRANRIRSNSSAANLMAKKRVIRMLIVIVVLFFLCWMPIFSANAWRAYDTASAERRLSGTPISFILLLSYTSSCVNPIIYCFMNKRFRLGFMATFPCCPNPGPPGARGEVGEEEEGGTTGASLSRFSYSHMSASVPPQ
Procedure: as §1, §2

[3] = target: T3, human GABAA α1β3 receptor (Homo sapiens, UniProt P14867+P28472); assay: cell-based; settings: for inhibition at 100 µM: read-out: α1β3 GABAA % Inhibition @ 100 μM; for IC50: α1β3 GABAA IC50 (μM)
T3 construct: expressed in transfected cells; host or cells: Xenopus laevis oocytes, cDNA injection
T3 sequence (P14867 28-456): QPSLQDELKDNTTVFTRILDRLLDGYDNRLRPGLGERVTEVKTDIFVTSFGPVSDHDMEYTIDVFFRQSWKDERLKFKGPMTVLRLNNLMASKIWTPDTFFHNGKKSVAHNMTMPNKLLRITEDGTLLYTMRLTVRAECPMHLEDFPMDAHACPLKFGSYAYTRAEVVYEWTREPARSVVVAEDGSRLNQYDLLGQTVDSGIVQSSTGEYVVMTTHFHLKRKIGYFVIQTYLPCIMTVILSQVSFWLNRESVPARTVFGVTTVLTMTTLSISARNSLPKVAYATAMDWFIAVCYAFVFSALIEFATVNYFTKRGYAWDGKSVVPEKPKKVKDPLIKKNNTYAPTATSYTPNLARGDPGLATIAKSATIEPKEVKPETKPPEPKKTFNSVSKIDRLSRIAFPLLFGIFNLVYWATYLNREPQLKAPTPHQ
T3 sequence (P28472 26-473): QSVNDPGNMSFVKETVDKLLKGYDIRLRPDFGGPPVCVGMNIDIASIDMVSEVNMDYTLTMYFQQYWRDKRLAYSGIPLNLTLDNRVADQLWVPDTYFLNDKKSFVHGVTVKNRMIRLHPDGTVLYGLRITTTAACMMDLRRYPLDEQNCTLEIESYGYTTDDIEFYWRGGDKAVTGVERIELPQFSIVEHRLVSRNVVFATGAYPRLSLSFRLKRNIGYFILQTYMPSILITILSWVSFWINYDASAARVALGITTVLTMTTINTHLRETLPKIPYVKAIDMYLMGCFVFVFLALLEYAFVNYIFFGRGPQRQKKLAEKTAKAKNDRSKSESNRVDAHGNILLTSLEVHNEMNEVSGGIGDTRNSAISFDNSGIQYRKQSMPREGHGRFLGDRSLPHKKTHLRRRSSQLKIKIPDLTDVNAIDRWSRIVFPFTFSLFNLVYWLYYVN

T1 sequence (P41146 whole entry): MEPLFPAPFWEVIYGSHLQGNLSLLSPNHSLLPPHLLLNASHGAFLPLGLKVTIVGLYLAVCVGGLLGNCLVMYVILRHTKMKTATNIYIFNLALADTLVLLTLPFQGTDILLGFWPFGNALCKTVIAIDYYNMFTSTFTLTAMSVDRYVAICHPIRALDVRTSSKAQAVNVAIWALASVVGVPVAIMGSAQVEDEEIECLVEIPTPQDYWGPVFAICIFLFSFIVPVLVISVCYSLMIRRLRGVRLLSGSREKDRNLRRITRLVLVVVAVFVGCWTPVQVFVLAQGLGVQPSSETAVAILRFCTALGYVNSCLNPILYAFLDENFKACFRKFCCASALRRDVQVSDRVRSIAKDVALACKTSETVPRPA

SMILES	inhibition at 10 µM [1]	inhibition at 10 µM [2]	inhibition achieved at the highest concentration [3]	inhibition at 100 µM [3]	IC50 [3]
CC1(C)C(=O)N(c2ccc(C#N)c(C(F)(F)F)c2)C(=S)N1c1ccc(C(=O)O)c(F)c1 [(MI), 4-(3-(4-cyano-3-(trifluoromethyl)phenyl)-5,5-dimethyl-4-oxo-2-thioxoimidazolidin-1-yl)-2-fluorobenzoic acid]	-10%	47%	75±18.4%	90%	20.7 ± 6 µM
CC1(C)C(=O)N(c2ccc(C#N)c(C(F)(F)F)c2)C(=S)N1c1ccc(C(N)=O)c(F)c1 [(MII), 4-(3-(4-Cyano-3-(trifluoromethyl)phenyl)-5,5-dimethyl-4-oxo-2-thioxoimidazolidin-1-yl)-2-fluorobenzamide]	-4%	0%	80±10%	88%	–
CC1(C)C(=O)N(c2ccc(C#N)c(C(F)(F)F)c2)C(=O)N1c1ccc(C(N)=O)c(F)c1 [(MIII), 4-(3-(4-cyano-3-(trifluoromethyl)phenyl)-5,5-dimethyl-2,4-dioxoimidazolidin-1-yl)-2-fluorobenzamide]	0%	-14%	–	57%	4 ± 3.15 µM
CNC(=O)c1ccc(N2C(=O)N(c3ccc(C#N)c(C(F)(F)F)c3)C(=O)C2(C)C)cc1F [(MIV), 4-(3-(4-cyano-3-(trifluoromethyl)phenyl)-5,5-dimethyl-2,4-dioxoimidazolidin-1-yl)-2-fluoro-N-methylbenzamide]	-2%	25%	–	78%	–

Source: patent US8524755B2 (priority 2009, dated 2013)
